Reference: US8394820B2, “N-azabicyclic carboxamide derivatives, preparation thereof and therapeutic use thereof” (Sanofi, priority 2008, dated 2013)

Test system: not given
Assay: not given
Details: not given

SMILES | melting point [°C]
Cc1nc2cc(NC(=O)c3cc4cc(C(F)(F)F)ccc4n3Cc3cccc(F)c3)ccn2c1C | 280 to 281
O=C(Nc1ccn2cc(CO)nc2c1)c1cc2cc(C(F)(F)F)cnc2n1Cc1cccc(F)c1 | 238 to 240
Cc1nc2cc(NC(=O)c3cc4cc(C(F)(F)F)cnc4n3Cc3cccc(F)c3)ccn2c1C | 287 to 288
CCc1cn2ccc(NC(=O)c3cc4cc(C(F)(F)F)cnc4n3Cc3cccc(F)c3)cc2n1 | 264 to 265
CCOC(=O)c1cn2nc(NC(=O)c3cc4cc(F)ccc4n3Cc3cccc(F)c3)ccc2n1 | 267 to 268
Cc1cc2ncc(NC(=O)c3cc4cc(F)ccc4n3Cc3cccc(F)c3)cn2n1 [Compound 20, N-(2-Methylpyrazolo[1,5-a]pyrimidin-6-yl)-5-fluoro-1-[(3-fluorophenyl)methyl]-1H-indole-2-carboxamide] | 267 to 268
CCOC(=O)c1cn2cc(NC(=O)c3cc4cc(F)ccc4n3Cc3cccc(F)c3)ccc2n1 | 242 to 245

Second part, the compound after the results:

melting point [°C] | SMILES
244 to 245 | O=C(Nc1ccn2cc(CO)nc2c1)c1cc2cc(F)ccc2n1Cc1cccc(F)c1
259 to 260 | O=C(Nc1ccn2cc(-c3cccs3)nc2c1)c1cc2cc(F)ccc2n1Cc1cccc(F)c1
247 to 249 | O=C(Nc1ccc2nc(CO)cn2c1)c1cc2cc(F)ccc2n1Cc1cccc(F)c1
254 to 255 | O=C(Nc1ccn2cc(CO)nc2c1)c1cc2cc(C(F)(F)F)ccc2n1Cc1cccc(F)c1
200 to 203 | Cc1cn2cc(NC(=O)c3cc4cc(F)ccc4n3Cc3cccc(F)c3)ccc2n1
278 to 279 | CCc1cn2cc(NC(=O)c3cc4cc(F)ccc4n3Cc3cccc(F)c3)ccc2n1
327 to 328 | CC(C)(C)c1cn2ccc(NC(=O)c3cc4cc(F)ccc4n3Cc3cccc(F)c3)cc2n1
190 to 192 | CC(C)(C)c1cn2cc(NC(=O)c3cc4cc(F)ccc4n3Cc3cccc(F)c3)ccc2n1
316 to 318 | O=C(Nc1ccc2nc(-c3cccs3)cn2c1)c1cc2cc(F)ccc2n1Cc1cccc(F)c1
305 to 307 | Cc1nc2cc(NC(=O)c3cc4cc(F)ccc4n3Cc3cccc(F)c3)ccn2c1-c1ccccc1
215 to 216 | COCc1cn2ccc(NC(=O)c3cc4cc(F)ccc4n3Cc3cccc(F)c3)cc2n1
267 to 268 | Cc1cn2ccc(NC(=O)c3cc4cc(F)ccc4n3Cc3cccc(F)c3)cc2n1

Target: T1, TRPV1 receptor (Rattus norvegicus, UniProt O35433)
T1 construct: DRG neurones naturally express the TRPV1 receptor; endogenous in cells; host or cells: primary culture of newborn (1-day-old) rat dorsal root ganglion neurones
T1 sequence (O35433 whole entry): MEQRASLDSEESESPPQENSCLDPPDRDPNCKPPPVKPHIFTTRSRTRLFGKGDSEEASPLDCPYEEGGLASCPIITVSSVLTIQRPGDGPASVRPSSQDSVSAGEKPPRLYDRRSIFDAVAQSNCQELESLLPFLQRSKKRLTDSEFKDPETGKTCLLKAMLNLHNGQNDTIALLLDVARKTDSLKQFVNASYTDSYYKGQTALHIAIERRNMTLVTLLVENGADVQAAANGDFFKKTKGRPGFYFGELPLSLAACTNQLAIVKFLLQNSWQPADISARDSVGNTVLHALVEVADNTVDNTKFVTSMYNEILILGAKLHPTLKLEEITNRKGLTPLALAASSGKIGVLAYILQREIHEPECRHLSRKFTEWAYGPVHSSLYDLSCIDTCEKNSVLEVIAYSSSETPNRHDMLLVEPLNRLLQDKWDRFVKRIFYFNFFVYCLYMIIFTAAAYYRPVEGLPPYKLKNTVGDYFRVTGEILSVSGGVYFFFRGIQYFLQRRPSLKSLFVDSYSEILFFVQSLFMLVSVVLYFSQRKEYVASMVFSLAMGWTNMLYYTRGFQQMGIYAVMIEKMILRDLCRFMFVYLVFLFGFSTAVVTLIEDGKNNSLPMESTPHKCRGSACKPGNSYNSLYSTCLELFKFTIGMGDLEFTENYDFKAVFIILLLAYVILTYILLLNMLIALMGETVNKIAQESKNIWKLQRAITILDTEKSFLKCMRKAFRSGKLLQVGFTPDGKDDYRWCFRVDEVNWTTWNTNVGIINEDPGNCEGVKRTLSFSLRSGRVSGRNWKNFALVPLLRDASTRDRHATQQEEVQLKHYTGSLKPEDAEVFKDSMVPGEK
Assay: Test of inhibition of the current induced with capsaicin on rat DRGs (whole-cell patch-clamp)
Format: cell-based
Details: compound at 1 nM; inhibition of control capsaicin response; primary culture of newborn rat DRG neurones
Procedure: Test of Inhibition of the Current Induced with Capsaicin on Rat DRGs • Primary culture of rat dorsal root ganglion (DRG) cells:
DRG neurones naturally express the TRPV1 receptor.
The primary cultures of newborn rat DRGs are prepared using 1-day-old rats. Briefly, after dissection, the ganglions are trypsinized and the cells dissociated by mechanical trituration. The cells are resuspended in an Eagle basal culture medium containing 10% foetal calf serum, 25 mM KCl, 2 mM glutamine, 100 μg/ml gentamicin and 50 ng/ml of NGF, and then deposited on glass slides coated with laminin (0.25×10^6 cells per slide), which are then placed in Corning 12-well dishes. The cells are incubated at 37° C. in a humidified atmosphere containing 5% CO2 and 95% air. […]
The measuring chambers (volume 800 μl) containing the cell preparation are placed on the platform of an inverted microscope (Olympus IMT2) equipped with Hoffman optics (Modulation Contrast, New York) and observed at a magnification of 400×. […] The overall currents (membrane potential set at −60 mV) are recorded with an Axopatch 1D amplifier (Axon Instruments, Foster City, Calif.), connected to a PC running the Pclamp8 software (Axon Instrument). The current plots are recorded on paper and simultaneously digitized (sampling frequency 15 to 25 Hz) and acquired on the hard drive of the PC. […]

SMILES | inhibition at 0.001 µM [%]
Cc1nc2cc(NC(=O)c3cc4cc(F)ccc4n3Cc3cccc(F)c3)ccn2c1C [Compound 1, N-(2,3-Dimethylimidazo[1,2-a]pyrid-7-yl)-5-fluoro-1-[(3-fluorophenyl)methyl]-1H-indole-2-carboxamide] | 81.5

Same assay, conditions: compound at 100 nM; inhibition of control capsaicin response; primary culture of newborn rat DRG neurones

SMILES | inhibition at 0.1 µM [%]
Cc1cc2ncc(NC(=O)c3cc4cc(F)ccc4n3Cc3cccc(F)c3)cn2n1 [Compound 20, N-(2-Methylpyrazolo[1,5-a]pyrimidin-6-yl)-5-fluoro-1-[(3-fluorophenyl)methyl]-1H-indole-2-carboxamide] | 80
